# Values of other authors, collected in patent publication US12274713B2, “Nutraceutical composition comprising a water-soluble fullerene and a ketone” (priority 2021, dated 2025).
# Tested on: tumor growth and metastasis
# Details: Prylutska et al.
structure (smiles),measurement,value
"c12c3c4c5c1c1c6c7c2c2c8c3c3c9c4c4c%10c5c5c1c1c6c6c%11c7c2c2c7c8c3c3c8c9c4c4c9c%10c5c5c1c1c6c6c%11c2c2c7c3c3c8c4c4c9c5c1c1c6c2c3c41 [60-carbon fullerene, Buckminsterfullerene]",tumor growth and metastasis,inhibit tumor growth and metastasis
